Target: human LPAR1 (Homo sapiens, UniProt Q92633)
Assay: LPAR1 intracellular calcium mobilization assay (antagonist mode, FLIPR)
Format: cell-based
Conditions: CHO-K1 EDG2 cells expressing human LPAR1; test compound 0.5 nM to 10 μM pre-incubated 60 minutes at 37° C., then LPA 18:2 at EC80 concentration (100 nM)
Protocol: In vitro LPAR1 activity was measured in an intracellular calcium mobilization assay. CHO-K1 EDG2 cells (DiscoverX cat #93-0644C2) expressing human LPAR1 (NM_001401.3) were seeded in a total volume of 25 μL of Dulbecco's Modification of Eagle's Medium (DMEM) with 10% Fetal Bovine Serum, 1× PenStrepGlutamine, 300 μg/ml Hygromycin, and 800 μg/ml G418 into 384-well tissue culture plate (Grenier #781091) at 15,000 cells/well and incubated at 37° C. overnight. Prior to testing, 25 μL Calcium Loading Dye Component A (FLIPR Calcium 6 Assay Kit Molecular Device # R8190) and 2.5 mM Probenecid (Invitrogen # P36400, prepared fresh) in Hank's Balanced Salt Solution (Corning #21-023-CV), 20 mM HEPES (Corning #25-060-CI), 0.1% Bovine Serum Albumin (Sigma-Aldrich # A7906-500G) was add to the cells for 60 minutes at 37° C.
Agonist dose curves of LPA 18:2 (Avanti Polar Lipids cat #857138, 0.5 nM to 10 μM) were recorded to determine the LPA 18:2 EC80 for subsequent antagonist assays. For agonist dose curves, cells were removed from the incubator 2 hours after dye loading and transferred to the FLIPR Tetra instrument (Molecular Devices, San Jose, CA). Calcium mobilization was monitored for 5 min and 10 μL 6×LPA in HBSS/20 mM Hepes/0.1% bovine serum albumin (BSA) was added to the cells 5 seconds into the assay.
To determine the LPAR1 antagonist activity of test compounds, cells were pre-incubated with test compound at a dose range of 0.5 nM to 10 μM, followed by LPA at EC80 concentration (100 nM). After dye loading, cells were removed from the incubator and 0.3 μL of 200× antagonist was added. Cells were incubated for 60 minutes at 37° C. Antagonist activity was measured on a FLIPR Tetra. Calcium mobilization was monitored for 3.5 minutes and 10 μL 6×EC80 LPA in HBSS, 20 mM HEPES, and 0.1% BSA was added to the cells 5 seconds into the assay. Signal amplitude (Maximum minus minimum) values were plotted against log10 of antagonist concentration using Dose Response Tool (Gilead Sciences Inc.) to determine […].
To assess the antagonistic potential of exemplified compounds […] were determined for Compounds 1 to 66 in the LPAR1 calcium mobilization assay. The compound numbers correspond to the compound numbers in Examples 1 to 18. N/A=not available.

human LPAR1, sequence (Q92633 whole entry): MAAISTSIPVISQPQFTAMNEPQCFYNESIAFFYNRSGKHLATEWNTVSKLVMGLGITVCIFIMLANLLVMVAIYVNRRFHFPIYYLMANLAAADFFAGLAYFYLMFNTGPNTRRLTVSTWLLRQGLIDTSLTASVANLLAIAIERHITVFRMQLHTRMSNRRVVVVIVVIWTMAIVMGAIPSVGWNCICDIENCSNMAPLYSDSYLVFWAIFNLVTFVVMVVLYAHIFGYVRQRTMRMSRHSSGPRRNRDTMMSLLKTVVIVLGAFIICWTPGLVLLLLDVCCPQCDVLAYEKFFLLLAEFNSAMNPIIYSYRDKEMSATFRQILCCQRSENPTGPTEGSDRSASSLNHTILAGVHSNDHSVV

| EC50 [nM] | SMILES |
| --- | --- |
| 75.8 | C[C@@H](OC(=O)Nc1c(-c2ccc(C(=O)Nc3ccncc3)cn2)nnn1C)c1cccnc1Cl [Compound 1, (R)-1-(2-chloropyridin-3-yl)ethyl (1-methyl-4-(5-(pyridin-4-ylcarbamoyl)pyridin-2-yl)-1H-1,2,3-triazol-5-yl)carbamate] |
| 8.1 | C[C@@H](OC(=O)Nc1c(-c2ccc(C(=O)NC34CC(Cl)(C3)C4)cn2)nnn1C)c1cccnc1Cl [Compound 2, (R)-1-(2-chloropyridin-3-yl)ethyl (4-(5-((3-chlorobicyclo[1.1.1]pentan-1-yl)carbamoyl)pyridin-2-yl)-1-methyl-1H-1,2,3-triazol-5-yl)carbamate] |
| 1420 | C[C@@H](OC(=O)Nc1c(-c2ccc(C(=O)NC3CC(F)(F)C3)cn2)nnn1C)c1cccnc1Cl [Compound 3, (R)-1-(2-chloro-pyridin-3-yl)-ethyl (4-(5-((3,3-difluoro-cyclobutyl)-carbamoyl)-pyridin-2-yl)-1-methyl-1H-1,2,3-triazol-5-yl)carbamate] |
| 142 | C[C@@H](OC(=O)Nc1c(-c2ccc(C(=O)NC34CC(F)(C3)C4)cn2)nnn1C)c1cccnc1Cl [Compound 4, (R)-1-(2-chloro-pyridin-3-yl)-ethyl (4-(5-((3-fluorobicyclo-[1.1.1]pentan-1-yl)carbamoyl)-pyridin-2-yl)-1-methyl-1H-1,2,3-triazol-5-yl)carbamate] |
| 42.9 | C[C@@H](OC(=O)Nc1c(-c2ccc(C(=O)NC34CC(C#N)(C3)C4)cn2)nnn1C)c1cccnc1Cl [Compound 5, (R)-1-(2-chloro-pyridin-3-yl)-ethyl (4-(5-((3-cyanobicyclo [1.1.1]pentan-1-yl)carbamoyl)-pyridin-2-yl)-1-methyl-1H-1,2,3-triazol-5-yl)carbamate] |
| 56.1 | C[C@@H](OC(=O)Nc1c(-c2ccc(C(=O)NC34CC(C(F)F)(C3)C4)cn2)nnn1C)c1cccnc1Cl [Compound 6] |
| 334 | C[C@@H](OC(=O)Nc1c(-c2ccc(C(=O)Nc3cccnc3)cn2)nnn1C)c1cccnc1Cl [Compound 7, (R)-1-(2-chloro-pyridin-3-yl)-ethyl (1-methyl-4-(5-(pyridin-3-ylcarbamoyl)-pyridin-2-yl)-1H-1,2,3-triazol-5-yl)carbamate] |
| 30.4 | C[C@@H](OC(=O)Nc1c(-c2ccc(C(=O)NC34CC(C)(C3)C4)cn2)nnn1C)c1cccnc1Cl [Compound 8, (R)-1-(2-chloro-pyridin-3-yl)-ethyl (1-methyl-4-(5-((3-methyl-bicyclo[1.1.1]-pentan-1-yl)-carbamoyl)-pyridin-2-yl)-1H-1,2,3-triazol-5-yl)carbamate] |
| 325 | C[C@@H](OC(=O)Nc1c(-c2ccc(C(=O)Nc3ccc(F)nc3)cn2)nnn1C)c1cccnc1Cl [Compound 9, (R)-1-(2-chloro-pyridin-3-yl)-ethyl (4-(5-((6-fluoropyridin-3-yl)carbam-oyl)pyridin-2-yl)-1-methyl-1H-1,2,3-triazol-5-yl)carbamate] |
| 439 | C[C@@H](OC(=O)Nc1c(-c2ccc(C(=O)NC34CC(C3)C4)cn2)nnn1C)c1cccnc1Cl [Compound 10, (R)-1-(2-chloro-pyridin-3-yl)-ethyl (4-(5-(bicyclo[1.1.1]-pentan-1-yl-carbamoyl)-pyridin-2-yl)-1-methyl-1H-1,2,3-triazol-5-yl)carbamate] |
| 62.7 | COC12CC(NC(=O)c3ccc(-c4nnn(C)c4NC(=O)O[C@H](C)c4cccnc4Cl)nc3)(C1)C2 [Compound 11, (R)-1-(2-chloro-pyridin-3-yl)-ethyl (4-(5-((3-methoxybicyclo-[1.1.1]pentan-1-yl)carbamoyl)-pyridin-2-yl)-1-methyl-1H-1,2,3-triazol-5-yl)carbamate] |
| 26.5 | COC(=O)C12CC(NC(=O)c3ccc(-c4nnn(C)c4NC(=O)O[C@H](C)c4cccnc4Cl)nc3)(C1)C2 [Compound 12, (R)-methyl 3-(6-(5-(((1-(2-chloro-pyridin-3-yl)-ethoxy)carbon-yl)amino)-1-methyl-1H-1,2,3-triazol-4-yl)nicotinamido)-bicyclo[1.1.1]-pentane-1-carbox-ylate] |
| 251 | C[C@@H](OC(=O)Nc1c(-c2ccc(C(=O)NC34CC(CO)(C3)C4)cn2)nnn1C)c1cccnc1Cl [Compound 13] |
| 256 | C[C@@H](OC(=O)Nc1c(-c2ccc(C(=O)Nc3ccccc3)cn2)nnn1C)c1cccnc1Cl [Compound 14, (R)-1-(2-chloro-pyridin-3-yl)-ethyl (1-methyl-4-(5-(phenyl-carbamoyl)-pyridin-2-yl)-1H-1,2,3-triazol-5-yl)carbamate] |
| 26.2 | C[C@@H](OC(=O)Nc1c(-c2ccc(C(=O)NC34CC(C(F)(F)F)(C3)C4)cn2)nnn1C)c1cccnc1Cl [Compound 15, (R)-1-(2-chloro-pyridin-3-yl)ethyl (1-methyl-4-(5-((3-(trifluoro-methyl)bicyclo-[1.1.1]pentan-1-yl)carbamoyl)-pyridin-2-yl)-1H-1,2,3-triazol-5-yl)carbamate] |
| 3590 | C[C@@H](OC(=O)Nc1c(-c2ccc(C(=O)NC3CCOCC3)cn2)nnn1C)c1cccnc1Cl [Compound 16, (R)-1-(2-chloro-pyridin-3-yl)-ethyl (1-methyl-4-(5-((tetrahydro-2H-pyran-4-yl)-carbamoyl)-pyridin-2-yl)-1H-1,2,3-triazol-5-yl)carbamate] |
| 649 | C[C@@H](OC(=O)Nc1c(-c2ccc(C(=O)Nc3ccc(N4CCOCC4)cc3)cn2)nnn1C)c1cccnc1Cl [Compound 17, (R)-1-(2-chloro-pyridin-3-yl)-ethyl (1-methyl-4-(5-((4-morph-olinophenyl)-carbamoyl)-pyridin-2-yl)-1H-1,2,3-triazol-5-yl)carbamate] |
| 91.2 | C[C@@H](OC(=O)Nc1c(-c2ccc(C(=O)NC34CC(C#N)(C3)C4)cn2)nnn1C)c1cc(F)cnc1F [Compound 18, (R)-1-(2,5-difluoropyridin-3-yl)ethyl (4-(5-((3-cyanobicyclo[1.1.1]pentan-1-yl)carbamoyl)pyridin-2-yl)-1-methyl-1H-1,2,3-triazol-5-yl)carbamate] |
| 16.6 | C[C@@H](OC(=O)Nc1c(-c2ccc(C(=O)Nc3ccnc(C(F)(F)F)c3)cn2)nnn1C)c1cc(F)cnc1F [Compound 19, (R)-1-(2,5-difluoropyridin-3-yl)ethyl (1-methyl-4-(5-((2-(trifluoromethyl)pyridin-4-yl)carbamoyl)pyridin-2-yl)-1H-1,2,3-triazol-5-yl)carbamate] |
| 313 | C[C@@H](OC(=O)Nc1c(-c2ccc(C(=O)NC34CC(F)(C3)C4)cn2)nnn1C)c1cc(F)cnc1F [Compound 20, (R)-1-(2,5-difluoro-pyridin-3-yl)ethyl (4-(5-((3-fluoro-bicyclo[1.1.1]-pentan-1-yl)-carbamoyl)pyridin-2-yl)-1-methyl-1H-1,2,3-triazol-5-yl)carbamate] |
| 44.8 | C[C@@H](OC(=O)Nc1c(-c2ccc(C(=O)NC34CC(Cl)(C3)C4)cn2)nnn1C)c1cc(F)cnc1F [Compound 21, (R)-1-(2,5-difluoro-pyridin-3-yl)ethyl (4-(5-((3-chloro-bicyclo[1.1.1]-pentan-1-yl)-carbamoyl)pyridin-2-yl)-1-methyl-1H-1,2,3-triazol-5-yl)carbamate] |
| 84.8 | C[C@@H](OC(=O)Nc1c(-c2ccc(C(=O)NC34CC(C(F)(F)F)(C3)C4)cn2)nnn1C)c1cc(F)cnc1F [Compound 22, (R)-1-(2,5-difluoro-pyridin-3-yl)ethyl (1-methyl-4-(5-((3-(trifluorometh-yl)bicyclo[1.1.1]-pentan-1-yl)carbam-oyl)pyridin-2-yl)-1H-1,2,3-triazol-5-yl)carbamate] |
| 159 | C[C@@H](OC(=O)Nc1c(-c2ccc(C(=O)NC34CC(C(F)F)(C3)C4)cn2)nnn1C)c1cc(F)cnc1F [Compound 23, (R)-1-(2,5-difluoro-pyridin-3-yl)ethyl (4-(5-((3-(difluoro-methyl)bicyclo-[1.1.1]pentan-1-yl)carbamoyl)-pyridin-2-yl)-1-methyl-1H-1,2,3-triazol-5-yl)-carbamate] |
| 222 | C[C@@H](OC(=O)Nc1c(-c2ccc(C(=O)Nc3cnc(C(F)(F)F)nc3)cn2)nnn1C)c1cc(F)cnc1F [Compound 24, (R)-1-(2,5-difluoro-pyridin-3-yl)ethyl (1-methyl-4-(5-((2-(trifluorometh-yl)pyrimidin-5-yl)-carbamoyl)pyridin-2-yl)-1H-1,2,3-triazol-5-yl)-carbamate] |
